{"source": "paper PMC2723765", "about": "(Bioorganic & medicinal chemistry, 2009)", "key": {"PET studies": {"assay": "PET studies", "type": "in vivo, C57BL/6 mice", "conditions": "co-injection with excess (50 μg) non-radioactive 4"}, "CXCR4 [1]": {"molecular_target": "CXCR4 (Mus musculus, UniProt P70658)", "sequence (P70658 whole entry)": "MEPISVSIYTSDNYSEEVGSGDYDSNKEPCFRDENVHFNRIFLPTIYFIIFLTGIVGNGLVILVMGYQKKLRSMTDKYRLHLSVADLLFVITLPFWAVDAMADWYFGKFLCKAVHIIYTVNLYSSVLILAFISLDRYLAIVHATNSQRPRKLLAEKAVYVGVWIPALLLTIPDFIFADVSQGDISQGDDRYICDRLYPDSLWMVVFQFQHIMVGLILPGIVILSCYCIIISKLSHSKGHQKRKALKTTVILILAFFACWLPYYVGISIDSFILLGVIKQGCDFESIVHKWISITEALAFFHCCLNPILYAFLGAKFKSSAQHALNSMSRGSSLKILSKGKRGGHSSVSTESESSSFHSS", "conditions": "read-out: IC50 of ^64Cu-4 binding to mouse splenocytes; constant amount of ^64Cu-4 and increasing concentrations of non-radioactive 4, 1 h; average of three experiments"}, "CXCR4 [2]": {"molecular_target": "CXCR4 (Homo sapiens, UniProt P61073)", "sequence (P61073 whole entry)": "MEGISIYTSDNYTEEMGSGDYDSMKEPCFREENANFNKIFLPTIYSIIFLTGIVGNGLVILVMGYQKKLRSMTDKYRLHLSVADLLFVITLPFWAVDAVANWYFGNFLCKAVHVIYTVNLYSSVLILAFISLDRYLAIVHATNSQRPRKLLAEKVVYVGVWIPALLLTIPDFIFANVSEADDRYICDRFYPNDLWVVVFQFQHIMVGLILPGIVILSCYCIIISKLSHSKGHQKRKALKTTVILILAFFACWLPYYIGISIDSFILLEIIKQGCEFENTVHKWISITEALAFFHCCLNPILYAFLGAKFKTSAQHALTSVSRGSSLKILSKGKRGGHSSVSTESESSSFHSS", "assay": "Transwell migration assay of Jurkat cells towards SDF-1", "type": "cell-based", "conditions": "SDF-1 in lower wells"}, "[3]": {"conditions": "cited from earlier work"}}, "note": "Like-named read-outs stand apart in the source and are kept apart here."}
{"compound": "CC(=O)[O-].CC(=O)[O-].[64Cu+2].c1cc(CN2CCCNCCNCCCNCC2)ccc1CN1CCCNCCNCCCNCC1", "note": "[^64Cu-4, [^64Cu]-1′-{1,4-phenylenebis(methylene)}-bis{1,4,8,11-tetraaza-cyclotetradecane}copper acetate]", "values": [{"measurement": "PET: uptake in spleen and liver after blocking", "setting": "PET studies", "result": "undetectable levels"}, {"measurement": "Uptake in BM", "setting": "1 h post i.v. injection", "result": 14, "unit": "% ID/g"}, {"measurement": "Uptake in LN", "setting": "1 h post i.v. injection", "result": 10, "unit": "% ID/g"}, {"measurement": "Uptake in blood", "setting": "1 h post i.v. injection", "result": 1.7, "unit": "% ID/g"}, {"measurement": "Uptake in kidneys", "setting": "1 h post i.v. injection", "result": 10, "unit": "% ID/g"}, {"measurement": "Uptake in liver", "setting": "1 h post i.v. injection", "result": 41, "unit": "% ID/g"}, {"measurement": "Uptake in muscle", "setting": "1 h post i.v. injection", "result": 0.3, "unit": "% ID/g"}, {"measurement": "Uptake in spleen", "setting": "1 h post i.v. injection", "result": 13, "unit": "% ID/g"}, {"measurement": "Accumulation in blood", "setting": "2 h post injection", "result": "< 1", "unit": "% ID/g"}, {"measurement": "Accumulation in liver", "setting": "2 h post injection", "result": 49, "unit": "% ID/g"}, {"measurement": "Change of accumulation in spleen, LN, liver and BM", "setting": "6 h post injection", "result": "slight increase"}, {"measurement": "Change of accumulation in kidneys", "setting": "co-injection of excess (50 μg) non-labeled 4", "result": "corresponding increase in accumulation"}, {"measurement": "Reduction of accumulation in liver", "setting": "co-injection of excess (50 μg) non-labeled 4, 2 h", "result": 79, "unit": "%"}, {"measurement": "Reduction of accumulation in liver", "setting": "co-injection of excess (50 μg) non-labeled 4, 6 h", "result": 74, "unit": "%"}, {"measurement": "Reduction of accumulation in all immune related organs", "setting": "co-injection of excess (50 μg) non-labeled 4, versus accumulation after 2 or 6 h", "result": "60–80%"}, {"measurement": "IC50", "setting": "CXCR4 [1]", "result": 46.9, "unit": "µM"}]}
{"compound": "SDF-1: chemokine stromal cell-derived factor-1, native ligand for CXCR4", "values": [{"measurement": "Lowest concentration that induces maximal migration of Jurkat cells", "setting": "CXCR4 [2]", "result": 100, "unit": "ng/mL"}]}
{"compound": "^99Tc- SDF-1: SDF-1 labeled with ^99Tc, imaging agent for myocardial infarction", "values": [{"measurement": "Accumulation in infarcted myocardium", "setting": "[3]", "result": 0.6, "unit": "% ID/g"}, {"measurement": "Accumulation in normal myocardium", "setting": "[3]", "result": 0.1, "unit": "% ID/g"}]}
